Literature values, collected in US7261907B2, “Compositions for the treatment of neurological disorders” (priority 2001, dated 2007).
Where a name gives a salt, the structure may show the parent alone.

Tested on: nicotine and cocaine addiction
Details: in vivo

SMILES: CC(NC(C)(C)C)C(=O)c1cccc(Cl)c1 (stereo not shown) [bupropion hydrochloride]
- effectiveness in treating nicotine and cocaine addiction: moderately effective
